Measurements from patent US9115143B2, “Substituted indole derivatives as gamma secretase modulators” (Janssen Pharmaceuticals, Inc., priority 2011, dated 2015).

What was measured:
Aβ42 [1] = test: Screening for γ-secretase-modulating activity: Aβ42 in supernatant of SKNBE2 cells carrying hAPP 695 wild type (Alphalisa); assay type: cell-based, human; settings: SKNBE2 human neuroblastoma cells carrying hAPP 695 wild type; overnight incubation; Alphalisa on supernatant
How it was run: (§1)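 Secreted Aβ42 (C-terminal/N-terminal antibody pair) and Aβtotal (N-terminal/mid-region pair) were quantified by AlphaLISA after overnight compound exposure of wild-type hAPP 695 SKNBE2 cells at 37 °C. Values expressed relative to compound-free maximum, with IC50 from nonlinear 4-parameter regression.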

Aβtotal = test: Screening for γ-secretase-modulating activity: Aβtotal in supernatant of SKNBE2 cells carrying hAPP 695 wild type (Alphalisa); assay type: cell-based, human; settings: SKNBE2 human neuroblastoma cells carrying hAPP 695 wild type; overnight incubation; Alphalisa on supernatant
How it was run: as §1

Aβ42 [2] = test: In vivo efficacy B-1b: brain soluble Aβ42, MSD electrochemiluminescence multiplex; settings: mouse brain soluble fraction, dose 30 mg/kg oral dosing, 4 h after dose; untreated control set at 100; read-out: Aβ42 (% vs Ctrl)_Mean
Source text: (§2) To determine whether acute administration of an Aβ42 lowering agent would reduce Aβ42 levels in vivo, non-transgenic rodents, e.g. mice or rats were used. Animals treated with the Aβ42 lowering agent were examined and compared to those untreated or treated with vehicle and brain levels of soluble Aβ42, Aβ40, Aβ38, and Aβ37 were quantitated by Meso Scale Discovery's (MSD) electrochemiluminescence detection technology. Treatment periods varied from hours (h) to days and were adjusted based on the results of the Aβ42 lowering once a time course of onset of effect could be established.
(§3) A typical protocol for measuring Aβ42 lowering in vivo is shown but it is only one of many variations that could be used to optimize the levels of detectable Aβ. For example, Aβ42 lowering compounds were formulated in 20% of Captisol® (a sulfobutyl ether of β-cyclodextrin) in water or 20% hydroxypropyl β cyclodextrin. The Aβ42 lowering agents were administered as a single oral dose or by any acceptable route of administration to overnight fasted animals. After 4 h, the animals were sacrificed and Aβ42 levels were analysed.
(§4) Blood was collected by decapitation and exsanguinations in EDTA-treated collection tubes. Blood was centrifuged at 1900 g for 10 minutes (min) at 4° C. and the plasma recovered and flash frozen for later analysis. The brain was removed from the cranium and hindbrain. The cerebellum was removed and the left and right hemisphere were separated. The left hemisphere was stored at −18° C. for quantitative analysis of test compound levels. The right hemisphere was rinsed with phosphate-buffered saline (PBS) buffer and immediately frozen on dry ice and stored at −80° C. until homogenization for biochemical assays.
(§5) Mouse brains from non-transgenic animals were resuspended in 8 volumes of 0.4% DEA (diethylamine)/50 mM NaCl containing protease inhibitors (Roche-11873580001 or 04693159001) per gram of tissue, e.g. for 0.158 g brain, add 1.264 ml of 0.4% DEA. All samples were homogenized in the FastPrep-24 system (MP Biomedicals) using lysing matrix D (MPBio #6913-100) at 6 m/s for 20 seconds. Homogenates were centrifuged at 20800×g for 5 min and supernatants collected. Supernatants were centrifuged at 221.300×g for 50 min. The resulting high speed supernatants were then transferred to fresh eppendorf tubes. Nine parts of supernatant were neutralized with 1 part 0.5 M Tris-HCl pH 6.8 and used to quantify Aβ.
(§6) To quantify the amount of Aβ42, Aβ40, Aβ38, and Aβ37 in the soluble fraction of the brain homogenates, simultaneous specific detection of Aβ42, Aβ40, Aβ38, and Aβ37 was performed using MSD's electro-chemiluminescence multiplex detection technology. In this assay purified monoclonal antibodies specific for Abeta37 (JRD/Aβ37/3), Abeta38 (J&JPRD/Aβ38/5), Abeta40 (JRF/cAβ40/28), and Abeta42 (JRF/cAβ42/26) were coated on MSD 4-plex plates. Briefly, the standards (a dilution of synthetic Aβ42, Aβ40, Aβ38, and Aβ37) were prepared in 1.5 ml Eppendorf tube in Ultraculture, with final concentrations ranging from 10000 to 0.3 pg/m. The samples and standards were co-incubated with Sulfo-tag labelled JRF/rAβ/2 antibody to the N-terminus of Aβ as detector antibody. 50 μl of conjugate/sample or conjugate/standards mixtures were then added to the antibody-coated plate. The plate was allowed to incubate overnight at 4° C. in order to allow formation of the antibody-amyloid complex. Following this incubation and subsequent wash steps the assay was finished by adding read buffer according to the manufacturer's instructions (Meso Scale Discovery, Gaitherburg, Md.).
(§7) The SULFO-TAG emits light upon electrochemical stimulation initiated at the electrode. MSD Sector instrument SI6000 was used for signal read-out.
In this model a Aβ42 lowering compared to untreated animals would be advantageous, in particular a Aβ42 lowering with at least 10%, more in particular a Aβ42 lowering with at least 20%. […]

Aβ40 = test: In vivo efficacy B-1b/B-2b: brain soluble Aβ40, MSD electrochemiluminescence multiplex; settings: mouse brain soluble fraction, dose 30 mg/kg oral dosing, 4 h after dose; untreated control set at 100; read-out: Aβ40 (% vs Ctrl)_Mean
Source text: as §2, §3, §4, §5, §6, §7
The results are shown in Table 5 (dose 30 mg/kg oral dosing) (value for untreated animals as control (Ctrl) was set at 100): […]

Aβ38 = test: In vivo efficacy B-2b: brain soluble Aβ38, MSD electrochemiluminescence multiplex; settings: mouse brain soluble fraction, dose 30 mg/kg oral dosing, 4 h after dose; untreated control set at 100; read-out: Aβ38 (% vs Ctrl)_Mean
Source text: as §2, with “Aβ38 increasing agents” for “Aβ42 lowering agent”, “increase Aβ38” for “reduce Aβ42”, “MSD” for “Meso Scale Discovery's (MSD)”, “Aβ38 increase” for “Aβ42 lowering”
as §3, with “measuring Aβ38 increase” for “measuring Aβ42 lowering”, “example, Aβ38 increasing agents” for “example, Aβ42 lowering compounds”, “The Aβ38 increasing” for “The Aβ42 lowering”, “and Aβ38” for “and Aβ42”
as §4, §5, §6, §7
In this model a Aβ38 increase compared to untreated animals would be advantageous, in particular a Aβ38 increase with at least 10%, more in particular a Aβ38 increase with at least 20%. […]

Row | Compound | IC50 (Aβ42 [1]) [nM] | IC50 (Aβtotal) [nM] | melting point [°C] | response vs control in vivo at 30 mg/kg (Aβ42 [2]) [%] | response vs control in vivo at 30 mg/kg (Aβ40) [%] | response vs control in vivo at 30 mg/kg (Aβ38) [%]
1 | COc1c(C#N)ccc2[nH]c(-c3cn4c(n3)C(c3ccccc3Cl)OCC4)cc12 (stereo not drawn) [Compound 50, 2-[8-(2-chlorophenyl)-5,6-dihydro-8H-imidazo[2,1-c][1,4]oxazin-2-yl]-4-methoxy-1H-indole-5-carbonitrile] | 31 | > 10000 | 254.3 | 43 | 46 | 141
2 | COc1c(C#N)ccc2[nH]c(-c3cn4c(n3)C(c3c(C)cccc3F)OCC4)cc12 (stereo not drawn) [Compound 138, 2-[8-(2-fluoro-6-methylphenyl)-5,6-dihydro-8H-imidazo[2,1-c][1,4]oxazin-2-yl]-4-methoxy-1H-indole-5-carbonitrile] | 19 | > 10000 | 297 | 75 | 90 | 117
3 | COc1c(C#N)ccc2[nH]c(-c3nc4n(n3)CCOC4c3cccc(F)c3C)cc12 (stereo not drawn) [Compound 147, 2-[8-(3-fluoro-2-methylphenyl)-5,6-dihydro-8H-[1,2,4]triazolo[5,1-c][1,4]oxazin-2-yl]-4-methoxy-1H-indole-5-carbonitrile] | 31 | > 10000 | 240.4 | 67 | 79 | 160
4 | COc1c(C#N)ccc2[nH]c(-c3cn4c(n3)C(c3c(F)cccc3C(F)(F)F)OCC4)cc12 (stereo not drawn) [Compound 153, 2-[8-[2-fluoro-6-(trifluoromethyl)phenyl]-5,6-dihydro-8H-imidazo[2,1-c][1,4]oxazin-2-yl]-4-methoxy-1H-indole-5-carbonitrile] | 36 | > 10000 |  | 60 | 76 | 236
5 | COc1c(C#N)ccc2[nH]c(-c3cn4c(n3)C(c3ccc(F)c(Cl)c3)OCC4)cc12 (stereo not drawn) [Compound 154, 2-[8-(3-chloro-4-fluorophenyl)-5,6-dihydro-8H-imidazo[2,1-c][1,4]oxazin-2-yl]-4-methoxy-1H-indole-5-carbonitrile] | 65 | > 10000 |  | 90 | 101 | 170

Second part, led by results:

Row | IC50 (Aβ42 [1]) [nM] | IC50 (Aβtotal) [nM] | melting point [°C] | Compound | response vs control in vivo at 30 mg/kg (Aβ42 [2]) [%] | response vs control in vivo at 30 mg/kg (Aβ40) [%] | response vs control in vivo at 30 mg/kg (Aβ38) [%]
6 | 23 | > 10000 | 280.1 | COc1c(C#N)ccc2[nH]c(-c3cn4c(n3)C(c3cc(F)ccc3C)OCC4)cc12 (stereo not drawn) [Compound 158, 2-[8-(5-fluoro-2-methylphenyl)-5,6-dihydro-8H-imidazo[2,1-c][1,4]oxazin-2-yl]-4-methoxy-1H-indole-5-carbonitrile] | 66 | 87 | 140
7 | 41 | > 10000 |  | COc1c(C#N)ccc2[nH]c(-c3cn4c(n3)C(c3cc(C(F)(F)F)ccc3F)OCC4)cc12 (stereo not drawn) [Compound 164, 2-[8-[2-fluoro-5-(trifluoromethyl)phenyl]-5,6-dihydro-8H-imidazo[2,1-c][1,4]oxazin-2-yl]-4-methoxy-1H-indole-5-carbonitrile] | 65 | 81 | 141
